Measured values: US20230381291A1, “TUMOR-ASSOCIATED PEPTIDES AND USES THEREOF” (HUMANITAS MIRASOLE S.P.A., priority 2020, published 2023)
Where a SMILES comes first, the peptide text is derived from it. The star is where a group is joined. Cbz = O=C(OCc1ccccc1)*

How the values were obtained:
Assay type in all cases: cell-based, human
[1] = tested on: Salmonella-infected 624-38 melanoma cells; test: HLA-A*02:01-peptide binding assay on T2 cells (peptide release into supernatant); settings: 624-38 cells treated with inhibitor; 4μ8c 10 μM, MG132 20 μM, Epoxomycin 500 nM
Procedure: (§1) In order to elucidate the Salmonella mechanism of action, the present inventors employed several inhibitors in their in vitro experiments, including: Heptanol (Sigma, 1 mM), hemichannel blocker; proteasome inhibitors: MG132 (Sigma, 20 μM) and Epoxomycin (Sigma, 500 nM); UPR-inhibitor 4μ8c (10 μM).
Single bacterial colonies were grown overnight and restarted the next day to reach an absorbance at 600 nm of 0.6 corresponding to 0.6×10^9 colony-forming units (CFUs)/ml. Murine and human melanoma cells were incubated with bacteria for 90 minutes, at a cell-to-bacteria ratio of 1:50, in the appropriate medium added with L-Glutamine without antibiotics. Cells were washed with medium and incubated in medium supplemented with gentamicin ([…]) for 18 hours to kill extracellular bacteria. At the end of the incubation cells were harvested and then lysed for protein analysis while supernatant was collected and filtered through 0.22 μm filter eliminate potentially still alive bacteria.
To assess peptides enrichment in the supernatant from tumor cell cultures following Salmonella treatment, T2 cells were incubated overnight at 37° C. at 2×10^5 cells/well in serum-free RPMI medium either with 100 μL of supernatant or with Mart-126-35 peptide (1 μM and 10 μM) as a positive control. […]

[2] = tested on: Salmonella-infected 624-38 melanoma cells; test: IFN-gamma release by CTL-Vax on Thp1 loaded with conditioned supernatant; settings: supernatant of inhibitor-treated Salmonella-infected 624-38 loaded on Thp1, ratio 1:1, 72 hours
Procedure: as §1
(§2) Human acute monocytic leukemia Thp1 cell line was loaded either with antigens at different concentration (20 uM-1.25 uM) or with conditioned medium and used to stimulate CTL-Vax (ratio 1:1). Cells supernatant was collected after 72 hours and IFN-gamma production was measured by ELISA (R&D). IFN-gamma released by CTLs co-cultured with unloaded Thp1 (spontaneous IFN-gamma release) was subtracted from IFN measured upon Ag-stimulation. Specificity of the activation was further assessed using an HLA-I pan blocker as control (10 ug/ml, Clone W6/32).

CTL-Vax = test: IFN-gamma assay for peptide recognition by CTLs (peptide-loaded Thp1, ELISA); settings: synthesized peptides loaded on Thp1 at 20 μM-1.25 μM, ratio 1:1, 72 hours
Procedure: as §2

| Molecule | peptide release prompted by Salmonella infection (HLA-A*02:01 MFI on T2 cells) [1] | CTL-Vax activation upon supernatant stimulation (IFN-gamma release) [2] | IFN-gamma production by CTL-VAX (CTL-Vax) |
| --- | --- | --- | --- |
| CC(C)C[C@@H](C=O)NC(=O)[C@H](CC(C)C)NC(=O)[C@H](CC(C)C)NC(=O)OCc1ccccc1 [MG132] (Cbz-Leu-Leu-Leu-aldehyde) | affected | affected |  |
| Cc1cc(=O)oc2c(C=O)c(O)ccc12 [4μ8c] | significantly impaired peptide release | lower activation |  |
| TMA747-44: candidate peptide from melanoma secretome that did not induce IFN-gamma production by CTL-VAX (AAGKGPLATGGIKKSGKK) |  |  | all except TMA747-44 (SEQ ID NO. 5) were able to induce IFN-gamma production |
